{"source": "paper PMC8581430", "about": "“Peptide ligands targeting FGF receptors promote recovery from dorsal root crush injury via AKT/mTOR signaling” (Theranostics, 2021)", "key": {"[1]": {"system": "primary DRG neurons", "experiment": "Axon growth of primary adult DRG neurons", "type": "cell-based, Sprague-Dawley rat", "conditions": "48 h", "description": "(§1) Figure 3 Effect of the CH02 peptide on axon growth and neuron survival. (A) Representative images of the CH02 peptide effect on axon growth in adult primary DRG neurons. DRG neurons were obtained from adult Sprague-Dawley rats. After 12-h of culture, neurons were stimulated with CH02 or bFGF for 48 h. Axonal outgrowth was assessed by immunocytochemistry using an antibody against β-tubulin, an axonal marker. Images were acquired from random neurons by fluorescence microscopy. Scale bars = 50 μm. (B) Quantification of the longest axon length of each neuron randomly selected in three independent experiments from (A), using Image-Pro Plus 6.0 software (n = 48 for each condition; *p < 0.05, ****p < 0.0001 by one-way ANOVA with Dunnett's test; ns, not significant; mean ± SD). (C) Representative images of the CH02 effect on axon growth in ex vivo cultured adult DRG explants. The axon is shown in fluorescence (β3-tubulin) images. Scale bars = 100 μm. (D) Quantification of axon growth of DRG explants from (C) using the Neurite-J software (n=4 for each condition; *control vs. CH02; #control vs. bFGF; *p < 0.05, **p < 0.01, ***p < 0.001, #p < 0.05, ##p < 0.01 by two-way ANOVA with Dunnett's test; ns, not significant; mean ± SEM). (E) Cell cytotoxicity assay of primary DRG neurons induced by H2O2. LDH released from damaged cell membranes was detected by an LDH assay kit. The results are expressed as the mean ± SEM (**p < 0.01 by one-way ANOVA with Dunnett's test; ns, not significant, compared with the control group). (F) Representative TUNEL staining of apoptotic neurons induced by H2O2 in the control, CH02, and FGF2 groups. Scale bars = 50 μm. Apoptotic neurons were detected by a TUNEL apoptosis assay kit. TUNEL (green); NeuN, neuronal marker (red); DAPI (blue). (G) Quantification of TUNEL-positive neurons from (F) (n = 3 for each condition; **p < 0.01 by one-way ANOVA with Dunnett's test; ns, not significant, compared with the control group). DRG neurons were obtained from adult Sprague-Dawley rats. […]"}, "[2]": {"system": "DRG explants", "experiment": "Axon growth of ex vivo cultured adult DRG explants", "type": "cell-based, Sprague-Dawley rat", "conditions": "4 days", "description": "as §1, with “(F) Representative TUNEL staining of apoptotic neurons induced by H2O2 in the control, CH02, and FGF2 groups. Scale bars = 50 μm.” left out, “TUNEL (green); NeuN, neuronal marker (red); DAPI (blue).” left out, “group).” for “group). DRG neurons were obtained from adult Sprague-Dawley rats.”\nDRG explants were harvested from adult Sprague-Dawley rats (220-250 g) and placed in a 3.5 cm dish containing 2 mL of ice-cold neurobasal medium supplemented with 1 × B27, 4 mM Glutamax and 3× penicillin/streptomycin (Pen/Strep). […] After 7 days of culture, axon growth was measured. […]"}}}
{"smiles": "CCN1CCN(c2ccc(Nc3cc(N(C)C(=O)Nc4c(Cl)c(OC)cc(OC)c4Cl)ncn3)cc2)CC1", "note": "[BGJ398]", "values": [{"measurement": "effect of inhibitor on CH02-enhanced neurite outgrowth, primary neurons", "setting": "[1]; CH02 20 μM + BGJ398 2 μM, n = 100", "result": "inhibited the enhancement of neuron outgrowth associated with CH02 treatment"}, {"measurement": "effect of inhibitor on CH02-enhanced neurite outgrowth, DRG explants", "setting": "[2]; CH02 20 μM + BGJ398 2 μM, n = 5", "result": "inhibited the enhancement of neuron outgrowth associated with CH02 treatment"}]}
{"smiles": "N#CC(=C(/N)Sc1ccccc1N)/C(C#N)=C(/N)Sc1ccccc1N", "note": "[U0126]", "values": [{"measurement": "effect of AKT/ERK inhibitor on axon growth-promoting effect of CH02, DRG neurons", "setting": "[1]; CH02 20 μM + inhibitor 2 μM, n = 40", "result": "had little effect"}, {"measurement": "effect of AKT/ERK inhibitor on axon growth-promoting effect of CH02, DRG explants", "setting": "[2]; CH02 20 μM + inhibitor 2 μM, n = 4", "result": "had little effect"}]}
